Literature values in PMC4136950 (Journal of peptide science : an official publication of the …, 2010).
pIC50: −log10 of the molar value.

Columns and labels:
[1] = molecular target: NR2C NMDA receptor subtype (co-expressed with NR1-2b) (Rattus norvegicus, UniProt P35439+Q00961); conditions: read-out: Approximate IC50, NR2C
[2] = molecular target: NR2B NMDA receptor subtype (co-expressed with NR1-2b) (Rattus norvegicus, UniProt P35439+Q00960); conditions: read-out: Approximate IC50, NR2B
[3] = test system: NMDA receptor subtypes NR2(A-D)
[4] = molecular target: NR2A NMDA receptor subtype (co-expressed with NR1-2b) (Rattus norvegicus, UniProt P35439+Q00959); conditions: read-out: Approximate IC50, NR2A
[5] = molecular target: NR2D NMDA receptor subtype (co-expressed with NR1-2b) (Rattus norvegicus, UniProt P35439+Q62645); conditions: read-out: Approximate IC50, NR2D
NR2D NMDA receptor subtype (co-expressed with NR1-2b), sequence (Q62645 28-1323, other chains not shown): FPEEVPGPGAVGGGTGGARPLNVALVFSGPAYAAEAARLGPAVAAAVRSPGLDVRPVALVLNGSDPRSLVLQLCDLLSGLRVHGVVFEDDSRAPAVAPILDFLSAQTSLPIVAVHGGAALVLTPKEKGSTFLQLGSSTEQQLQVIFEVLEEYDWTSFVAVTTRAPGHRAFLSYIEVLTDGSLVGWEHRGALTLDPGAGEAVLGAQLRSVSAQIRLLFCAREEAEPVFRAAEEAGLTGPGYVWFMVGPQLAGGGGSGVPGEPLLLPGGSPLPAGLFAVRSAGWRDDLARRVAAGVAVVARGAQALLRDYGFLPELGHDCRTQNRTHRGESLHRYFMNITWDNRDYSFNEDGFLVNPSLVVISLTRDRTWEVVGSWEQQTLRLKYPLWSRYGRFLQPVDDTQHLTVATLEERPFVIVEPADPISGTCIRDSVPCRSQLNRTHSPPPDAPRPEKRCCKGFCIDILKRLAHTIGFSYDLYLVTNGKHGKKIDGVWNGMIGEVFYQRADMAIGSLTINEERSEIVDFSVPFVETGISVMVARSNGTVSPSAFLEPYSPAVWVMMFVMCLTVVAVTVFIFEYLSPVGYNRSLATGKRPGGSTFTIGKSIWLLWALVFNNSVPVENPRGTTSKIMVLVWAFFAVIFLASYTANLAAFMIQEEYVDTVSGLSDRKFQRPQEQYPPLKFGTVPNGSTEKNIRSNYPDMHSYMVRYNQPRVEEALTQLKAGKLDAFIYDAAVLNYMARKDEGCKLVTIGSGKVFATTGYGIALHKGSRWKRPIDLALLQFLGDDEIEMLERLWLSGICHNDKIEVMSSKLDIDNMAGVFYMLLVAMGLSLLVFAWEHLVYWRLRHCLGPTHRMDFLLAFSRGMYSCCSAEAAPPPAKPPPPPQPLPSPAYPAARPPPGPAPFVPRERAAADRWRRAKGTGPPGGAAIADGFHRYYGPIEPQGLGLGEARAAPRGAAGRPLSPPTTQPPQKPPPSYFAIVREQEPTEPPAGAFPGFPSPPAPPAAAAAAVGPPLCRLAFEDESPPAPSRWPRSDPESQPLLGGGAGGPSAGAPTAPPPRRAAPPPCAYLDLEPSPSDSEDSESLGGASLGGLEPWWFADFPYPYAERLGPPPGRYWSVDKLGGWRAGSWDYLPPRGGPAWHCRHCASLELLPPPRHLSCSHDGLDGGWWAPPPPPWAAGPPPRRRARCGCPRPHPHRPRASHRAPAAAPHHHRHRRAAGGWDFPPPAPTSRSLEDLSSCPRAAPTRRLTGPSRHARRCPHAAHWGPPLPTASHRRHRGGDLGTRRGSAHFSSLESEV

NR2A NMDA receptor subtype (co-expressed with NR1-2b), sequence (Q00959 23-1464, other chains not shown): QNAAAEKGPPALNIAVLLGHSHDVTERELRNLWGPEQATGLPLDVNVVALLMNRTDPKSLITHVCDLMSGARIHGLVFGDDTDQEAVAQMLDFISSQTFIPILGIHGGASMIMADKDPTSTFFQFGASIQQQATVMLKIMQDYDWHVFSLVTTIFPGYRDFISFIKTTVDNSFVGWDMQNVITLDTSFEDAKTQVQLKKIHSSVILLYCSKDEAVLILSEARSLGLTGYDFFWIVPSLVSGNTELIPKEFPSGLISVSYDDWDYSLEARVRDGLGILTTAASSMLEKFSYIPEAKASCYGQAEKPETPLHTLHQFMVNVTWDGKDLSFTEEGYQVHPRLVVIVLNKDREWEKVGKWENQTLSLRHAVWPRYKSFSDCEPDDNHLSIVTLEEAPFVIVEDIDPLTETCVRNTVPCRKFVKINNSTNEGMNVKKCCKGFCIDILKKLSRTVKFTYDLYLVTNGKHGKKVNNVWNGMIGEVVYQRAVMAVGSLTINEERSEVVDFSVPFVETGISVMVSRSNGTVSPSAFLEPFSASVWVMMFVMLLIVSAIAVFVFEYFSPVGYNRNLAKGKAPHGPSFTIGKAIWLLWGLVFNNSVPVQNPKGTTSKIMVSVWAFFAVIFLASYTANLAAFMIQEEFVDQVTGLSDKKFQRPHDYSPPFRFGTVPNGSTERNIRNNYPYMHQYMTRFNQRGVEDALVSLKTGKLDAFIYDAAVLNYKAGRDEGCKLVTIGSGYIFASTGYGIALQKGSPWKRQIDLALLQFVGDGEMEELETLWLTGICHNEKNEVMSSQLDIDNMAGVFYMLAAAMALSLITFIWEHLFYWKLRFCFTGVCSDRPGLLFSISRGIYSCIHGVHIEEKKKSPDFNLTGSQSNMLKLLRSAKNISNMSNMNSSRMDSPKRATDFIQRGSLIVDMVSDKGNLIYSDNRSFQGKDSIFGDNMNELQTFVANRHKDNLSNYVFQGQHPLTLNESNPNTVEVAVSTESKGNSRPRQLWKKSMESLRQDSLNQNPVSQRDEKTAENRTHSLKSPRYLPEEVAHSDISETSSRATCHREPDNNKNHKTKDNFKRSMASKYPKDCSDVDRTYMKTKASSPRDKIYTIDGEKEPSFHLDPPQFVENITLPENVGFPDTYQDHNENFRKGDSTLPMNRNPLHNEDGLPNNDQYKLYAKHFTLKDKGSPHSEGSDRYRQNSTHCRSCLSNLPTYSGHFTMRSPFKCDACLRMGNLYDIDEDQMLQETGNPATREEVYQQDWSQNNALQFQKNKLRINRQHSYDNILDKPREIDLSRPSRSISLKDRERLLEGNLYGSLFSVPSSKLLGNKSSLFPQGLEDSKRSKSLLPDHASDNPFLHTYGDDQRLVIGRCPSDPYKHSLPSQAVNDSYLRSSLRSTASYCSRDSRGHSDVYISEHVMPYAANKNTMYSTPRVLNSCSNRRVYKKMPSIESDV
NR2B NMDA receptor subtype (co-expressed with NR1-2b), sequence (Q00960 27-1482, other chains not shown): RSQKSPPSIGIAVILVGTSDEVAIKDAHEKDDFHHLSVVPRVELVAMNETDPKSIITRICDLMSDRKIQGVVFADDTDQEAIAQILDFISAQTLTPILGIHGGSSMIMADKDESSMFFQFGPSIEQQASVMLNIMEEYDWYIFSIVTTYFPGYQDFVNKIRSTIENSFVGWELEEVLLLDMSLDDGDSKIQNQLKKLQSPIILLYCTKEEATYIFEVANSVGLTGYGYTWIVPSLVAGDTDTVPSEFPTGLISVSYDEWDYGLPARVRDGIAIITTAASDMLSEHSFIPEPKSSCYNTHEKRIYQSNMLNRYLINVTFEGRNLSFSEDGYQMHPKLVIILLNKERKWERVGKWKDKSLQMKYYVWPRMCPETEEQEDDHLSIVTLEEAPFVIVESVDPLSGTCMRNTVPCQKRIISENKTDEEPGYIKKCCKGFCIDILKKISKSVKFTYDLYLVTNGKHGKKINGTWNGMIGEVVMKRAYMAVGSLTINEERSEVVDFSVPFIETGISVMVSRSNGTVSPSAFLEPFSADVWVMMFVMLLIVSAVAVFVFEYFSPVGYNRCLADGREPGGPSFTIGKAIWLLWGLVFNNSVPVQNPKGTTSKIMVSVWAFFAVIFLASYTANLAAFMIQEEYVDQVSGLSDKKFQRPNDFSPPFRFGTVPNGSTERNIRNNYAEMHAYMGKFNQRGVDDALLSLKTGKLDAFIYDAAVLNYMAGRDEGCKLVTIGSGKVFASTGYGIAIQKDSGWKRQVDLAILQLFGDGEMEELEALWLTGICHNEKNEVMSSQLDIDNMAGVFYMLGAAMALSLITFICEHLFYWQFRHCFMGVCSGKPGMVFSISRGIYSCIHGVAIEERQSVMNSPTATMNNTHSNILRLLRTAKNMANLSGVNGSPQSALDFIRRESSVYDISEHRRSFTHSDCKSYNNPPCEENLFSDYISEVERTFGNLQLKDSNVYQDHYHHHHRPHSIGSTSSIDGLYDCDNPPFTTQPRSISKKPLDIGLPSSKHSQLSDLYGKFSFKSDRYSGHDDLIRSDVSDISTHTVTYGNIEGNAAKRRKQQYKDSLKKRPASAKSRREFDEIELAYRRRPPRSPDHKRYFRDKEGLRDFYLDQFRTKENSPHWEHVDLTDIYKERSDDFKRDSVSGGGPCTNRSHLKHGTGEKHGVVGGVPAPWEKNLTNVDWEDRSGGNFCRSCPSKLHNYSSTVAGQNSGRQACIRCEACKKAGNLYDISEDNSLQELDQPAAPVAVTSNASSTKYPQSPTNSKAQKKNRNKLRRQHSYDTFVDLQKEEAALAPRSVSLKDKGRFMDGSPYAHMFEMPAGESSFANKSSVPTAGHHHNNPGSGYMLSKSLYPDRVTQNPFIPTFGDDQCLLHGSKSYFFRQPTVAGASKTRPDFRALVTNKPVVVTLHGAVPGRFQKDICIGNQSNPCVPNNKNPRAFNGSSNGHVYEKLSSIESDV

In the case of GDγγ YSK FIγ RERγ AGR LDLSKFP^^ [ConBr], the pIC50 [1] is listed as 5.31, the pIC50 [2] is listed as 6.85 and the “antagonism of NMDA receptor subtypes” value [3] is listed as “known antagonist of the NR2B and NR2D NMDA receptor subtypes”. For the same substance, the pIC50 [4] was 6.17 and the pIC50 [5] was 6.51.
